Experimental data published in ChEMBL document CHEMBL5665443, “Enzyme Inhibitor Single Concentration assay results for EUbOPEN Chemogenomics Library” (2024).
Where a SMILES comes first, the peptide text is derived from it.

Legend:
Conditions in all cases: Hit No
[1] = target: G/T mismatch-specific thymine DNA glycosylase (Homo sapiens) (UniProt Q13569);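 note: human TDG cleavage of quenched duplex DNA oligonucleotides coupled to APE1, strand release read as fluorescence at 594 nm, inhibition of TDG activity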
Chain of G/T mismatch-specific thymine DNA glycosylase (Homo sapiens) (Q13569 whole entry): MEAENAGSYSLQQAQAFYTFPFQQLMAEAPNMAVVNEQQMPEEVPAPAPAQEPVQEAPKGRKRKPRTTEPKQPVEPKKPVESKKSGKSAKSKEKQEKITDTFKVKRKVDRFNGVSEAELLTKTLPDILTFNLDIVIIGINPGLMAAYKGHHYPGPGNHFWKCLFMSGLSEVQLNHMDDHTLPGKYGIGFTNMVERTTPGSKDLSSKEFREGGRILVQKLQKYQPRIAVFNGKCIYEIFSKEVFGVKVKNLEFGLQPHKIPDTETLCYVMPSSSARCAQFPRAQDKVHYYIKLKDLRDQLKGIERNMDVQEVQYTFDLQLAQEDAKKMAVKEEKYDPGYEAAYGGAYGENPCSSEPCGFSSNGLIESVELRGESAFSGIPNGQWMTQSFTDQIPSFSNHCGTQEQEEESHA
Description: Inhibition of TDG by quantifying inhibition of TDG-mediated cleavage and dissociation of quenched duplex DNA oligonucleotides, measured as fluorescence at 594 nm. To generate a functional strand incision and increase turn-over this assay is coupled to APE1.

[2] = target: T1, Adenine DNA glycosylase (Homo sapiens) (UniProt Q9UIF7);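 note: human MUTYH activity read as 594 nm fluorescence from cleavage and release of a quenched DNA duplex, coupled with APE1 for strand incision, lower signal meaning inhibition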
T1 sequence (whole entry): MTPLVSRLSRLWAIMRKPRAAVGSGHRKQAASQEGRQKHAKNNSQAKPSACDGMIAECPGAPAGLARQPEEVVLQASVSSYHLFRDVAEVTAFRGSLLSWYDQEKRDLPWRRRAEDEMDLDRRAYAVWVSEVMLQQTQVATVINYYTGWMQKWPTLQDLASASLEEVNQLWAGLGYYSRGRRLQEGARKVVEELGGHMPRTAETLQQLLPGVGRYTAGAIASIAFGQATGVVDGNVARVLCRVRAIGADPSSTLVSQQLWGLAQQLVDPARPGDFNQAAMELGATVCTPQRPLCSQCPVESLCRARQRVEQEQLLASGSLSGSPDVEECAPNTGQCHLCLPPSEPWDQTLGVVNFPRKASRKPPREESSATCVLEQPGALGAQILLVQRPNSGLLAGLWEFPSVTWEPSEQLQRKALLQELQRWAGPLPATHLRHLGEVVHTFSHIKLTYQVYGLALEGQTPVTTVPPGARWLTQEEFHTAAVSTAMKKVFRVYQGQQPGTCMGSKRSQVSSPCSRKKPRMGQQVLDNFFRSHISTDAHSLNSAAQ
Description: Inhibition of MUTYH by quantifying inhibition of MUTYH-mediated cleavage and dissociation of quenched duplex DNA oligonucleotides, measured as fluorescence at 594 nm. To generate a functional strand incision and increase turn-over this assay is coupled to APE1.

[3] = target: T2, Endonuclease 8-like 2 (Homo sapiens) (UniProt Q969S2);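 note: fluorescence at 594 nm reports NEIL2 cutting and release of a quenched double-stranded DNA oligo substrate, reduced signal read as inhibition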
T2 sequence (whole entry): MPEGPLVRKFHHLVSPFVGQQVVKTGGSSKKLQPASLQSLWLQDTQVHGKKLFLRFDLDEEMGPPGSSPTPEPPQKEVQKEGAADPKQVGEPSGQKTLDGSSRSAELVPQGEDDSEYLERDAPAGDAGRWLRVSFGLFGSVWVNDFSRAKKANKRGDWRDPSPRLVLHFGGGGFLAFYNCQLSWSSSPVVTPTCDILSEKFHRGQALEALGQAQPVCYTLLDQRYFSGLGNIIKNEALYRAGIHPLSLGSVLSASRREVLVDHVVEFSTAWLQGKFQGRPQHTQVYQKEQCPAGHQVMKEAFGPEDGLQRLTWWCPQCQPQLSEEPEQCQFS
Description: Inhibition of NEIL2 by quantifying inhibition of NEIL2-mediated cleavage and dissociation of quenched duplex DNA oligonucleotides, measured as fluorescence at 594 nm.

[4] = target: Endonuclease 8-like 1 (Homo sapiens) (UniProt Q96FI4);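 note: fluorescence at 594 nm from quenched duplex DNA oligonucleotides released by NEIL1 cleavage and strand separation, reported as reduction of this enzyme activity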
Chain of Endonuclease 8-like 1 (Homo sapiens) (Q96FI4 whole entry): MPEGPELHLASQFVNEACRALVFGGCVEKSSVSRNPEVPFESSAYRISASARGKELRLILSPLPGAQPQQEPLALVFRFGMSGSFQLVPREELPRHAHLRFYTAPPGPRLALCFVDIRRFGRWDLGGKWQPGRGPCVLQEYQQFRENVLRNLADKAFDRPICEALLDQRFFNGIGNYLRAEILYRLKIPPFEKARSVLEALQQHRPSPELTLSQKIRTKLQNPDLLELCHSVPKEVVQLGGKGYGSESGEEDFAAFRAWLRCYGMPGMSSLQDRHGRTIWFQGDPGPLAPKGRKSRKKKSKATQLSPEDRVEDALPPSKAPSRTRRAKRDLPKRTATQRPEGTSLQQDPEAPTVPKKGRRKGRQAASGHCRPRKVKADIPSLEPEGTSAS
Description: Inhibition of NEIL1 by quantifying inhibition of NEIL1-mediated cleavage and dissociation of quenched duplex DNA oligonucleotides, measured as fluorescence at 594 nm.

[5] = target: T3, Single-strand selective monofunctional uracil DNA glycosylase (Homo sapiens) (UniProt Q53HV7);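 note: enzymatic SMUG1 assay coupled with APE1, reading fluorescence at 594 nm released when a quenched double-stranded DNA oligonucleotide substrate is cleaved and separated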
T3 sequence (whole entry): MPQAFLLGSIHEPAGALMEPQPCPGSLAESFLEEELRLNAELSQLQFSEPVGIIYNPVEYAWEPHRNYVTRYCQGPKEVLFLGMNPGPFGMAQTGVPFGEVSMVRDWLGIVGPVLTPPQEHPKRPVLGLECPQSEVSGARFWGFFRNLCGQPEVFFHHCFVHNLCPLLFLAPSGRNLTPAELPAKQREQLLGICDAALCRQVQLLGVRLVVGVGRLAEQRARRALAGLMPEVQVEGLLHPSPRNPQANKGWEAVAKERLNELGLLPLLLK
Description: Inhibition of SMUG1 by quantifying inhibition of SMUG1-mediated cleavage and dissociation of quenched duplex DNA oligonucleotides, measured as fluorescence at 594 nm. To generate a functional strand incision and increase turn-over this assay is coupled to APE1.

[6] = target: Uracil-DNA glycosylase (Homo sapiens) (UniProt P13051);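 note: UNG excision on a quenched double-stranded DNA oligo probe, with APE1 added for strand incision and turnover, read as fluorescence at 594 nm as strands separate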
Chain of Uracil-DNA glycosylase (Homo sapiens) (P13051 whole entry, the tested form may be a part): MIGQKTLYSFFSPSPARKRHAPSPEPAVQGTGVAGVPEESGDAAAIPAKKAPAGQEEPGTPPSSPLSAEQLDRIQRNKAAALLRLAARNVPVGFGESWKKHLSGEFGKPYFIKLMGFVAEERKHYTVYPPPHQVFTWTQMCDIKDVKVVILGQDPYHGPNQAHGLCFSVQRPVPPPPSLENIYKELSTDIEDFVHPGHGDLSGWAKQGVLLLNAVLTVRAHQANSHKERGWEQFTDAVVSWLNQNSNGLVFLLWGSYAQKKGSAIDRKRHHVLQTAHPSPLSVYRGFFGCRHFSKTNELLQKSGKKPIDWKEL
Description: Inhibition of UNG by quantifying inhibition of UNG-mediated cleavage and dissociation of quenched duplex DNA oligonucleotides, measured as fluorescence at 594 nm. To generate a functional strand incision and increase turn-over this assay is coupled to APE1.

[7] = target: Methyl-CpG-binding domain protein 4 (Homo sapiens) (UniProt O95243);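 note: MBD4 activity read as fluorescence at 594 nm from cleavage and release of a quenched duplex DNA oligonucleotide, with APE1 coupled to incise the strand and raise turnover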
Chain of Methyl-CpG-binding domain protein 4 (Homo sapiens) (O95243 whole entry, the tested form may be a part): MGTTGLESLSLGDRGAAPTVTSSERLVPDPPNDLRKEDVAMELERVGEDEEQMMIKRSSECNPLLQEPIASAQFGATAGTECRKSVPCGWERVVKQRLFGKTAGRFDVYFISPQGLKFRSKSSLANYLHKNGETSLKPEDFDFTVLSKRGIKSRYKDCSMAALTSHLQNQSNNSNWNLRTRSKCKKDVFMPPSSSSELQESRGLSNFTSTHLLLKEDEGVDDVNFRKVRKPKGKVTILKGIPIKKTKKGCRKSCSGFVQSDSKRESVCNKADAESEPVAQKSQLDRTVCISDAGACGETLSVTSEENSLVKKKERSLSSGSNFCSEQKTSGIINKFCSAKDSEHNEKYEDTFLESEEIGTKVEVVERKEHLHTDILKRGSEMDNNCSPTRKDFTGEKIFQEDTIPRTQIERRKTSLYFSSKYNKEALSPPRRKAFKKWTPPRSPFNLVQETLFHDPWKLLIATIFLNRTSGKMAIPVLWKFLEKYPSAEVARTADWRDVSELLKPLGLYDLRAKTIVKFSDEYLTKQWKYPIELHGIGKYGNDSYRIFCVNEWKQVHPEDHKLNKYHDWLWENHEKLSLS
Description: Inhibition of MBD4 by quantifying inhibition of MBD4-mediated cleavage and dissociation of quenched duplex DNA oligonucleotides, measured as fluorescence at 594 nm. To generate a functional strand incision and increase turn-over this assay is coupled to APE1.

[8] = target: N-glycosylase/DNA lyase (Homo sapiens) (UniProt O15527);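 note: OGG1 cleavage of a quenched duplex DNA oligonucleotide, coupled to APE1 for strand incision, read as fluorescence at 594 nm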
Chain of N-glycosylase/DNA lyase (Homo sapiens) (O15527 whole entry): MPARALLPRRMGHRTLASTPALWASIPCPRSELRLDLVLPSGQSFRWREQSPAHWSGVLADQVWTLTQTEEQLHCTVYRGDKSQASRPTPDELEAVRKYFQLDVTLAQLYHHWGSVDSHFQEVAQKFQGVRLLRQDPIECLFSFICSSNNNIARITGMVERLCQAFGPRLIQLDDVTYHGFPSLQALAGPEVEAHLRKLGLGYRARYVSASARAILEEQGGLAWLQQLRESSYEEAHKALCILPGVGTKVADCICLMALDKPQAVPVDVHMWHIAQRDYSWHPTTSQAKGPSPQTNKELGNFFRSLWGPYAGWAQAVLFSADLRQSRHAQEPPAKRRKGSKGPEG
Description: Inhibition of OGG1 by quantifying inhibition of OGG1-mediated cleavage and dissociation of quenched duplex DNA oligonucleotides, measured as fluorescence at 594 nm. To generate a functional strand incision and increase turn-over this assay is coupled to APE1.

SMILES | inhibition ([1]; Compound Concentration 10.0 uM) | inhibition ([2]; Compound Concentration 10.0 uM) | inhibition ([3]; Compound Concentration 10.0 uM) | inhibition ([4]; Compound Concentration 10.0 uM) | inhibition ([5]; Compound Concentration 10.0 uM) | inhibition ([6]; Compound Concentration 10.0 uM) | inhibition ([7]; Compound Concentration 10.0 uM) | inhibition ([8]; Compound Concentration 10.0 uM) | inhibition ([1]; Compound Concentration 1.0 uM) | inhibition ([2]; Compound Concentration 1.0 uM) | inhibition ([3]; Compound Concentration 1.0 uM) | inhibition ([4]; Compound Concentration 1.0 uM) | inhibition ([5]; Compound Concentration 1.0 uM) | inhibition ([6]; Compound Concentration 1.0 uM) | inhibition ([7]; Compound Concentration 1.0 uM) | inhibition ([8]; Compound Concentration 1.0 uM)
NC[C@@H]1O[C@H](C23CC4CC(CC(C4)C2)C3)Cc2c1ccc(O)c2O | 31.8% | 23.1% | 24.7% | 18.5% | 12.4% | -2.15% | -8.04% | – | – | – | – | – | – | – | – | –
C[C@@H](N)Cc1c[nH]cn1 | 19% | -1.26% | -9.22% | 3.8% | -2.12% | -6.39% | – | -8% | – | – | – | – | – | – | – | –
Cc1c(OCc2cccc(-c3ccc(C(=O)O)cc3)c2)cc2c(c1C)C(=O)C(C1CCCC1)C2 (stereo not drawn) | -4.78% | -1.13% | -2.23% | -5.54% | -3.76% | – | -8.74% | 0.771% | – | – | – | – | – | – | – | –
CC(C)c1cc(Nc2nc(N3CCC[C@H](N)C3)ncc2C(N)=O)cc(C(C)C)n1 | – | – | – | – | – | – | – | – | 25.2% | 0.673% | 11.5% | -3.69% | 11.3% | 1.59% | -6.11% | –
Cc1cc(C(=O)N2Cc3cnn(C)c3Nc3ccccc32)ccc1CNC(=O)N1CCC[C@H]1C(=S)N1CCCN(C)CC1 | -7.26% | -9.83% | 2.51% | -1.83% | -2.21% | – | – | -7% | – | – | – | – | – | – | – | –
CC(C)C[C@@H]1NC(=O)[C@@H](C(C)C)NC(=O)[C@@H]2CCCN2C(=O)[C@@H](CC(=O)O)NC(=O)[C@@H](Cc2c[nH]c3ccccc23)NC1=O (HELM PEPTIDE1{L.[dW].[dD].P.[dV]}$PEPTIDE1,PEPTIDE1,1:R1-5:R2$$$V2.0) | 0.54% | 6.29% | 0.764% | -3.47% | -0.372% | – | -8.68% | – | – | – | – | – | – | – | – | –
C(#Cc1cccc(CN2CCOCC2)c1)CCN1CCCCC1 | -1.72% | -3.69% | -2.73% | 11.2% | -7.54% | – | 0.0339% | -4.46% | – | – | – | – | – | – | – | –
Oc1cc2c(cc1O)C(c1ccccc1)CNCC2 (stereo not drawn) | 16.1% | 6.16% | 7.5% | -0.945% | -4.15% | – | – | -0.929% | – | – | – | – | – | – | – | –
CCc1cccc(CC)c1NC(=O)c1nn(C)c2c1CCc1cnc(Nc3ccc(C(=O)NC4CCN(C)CC4)cc3OC(F)(F)F)nc1-2 | 38.9% | -6.43% | 13.7% | 2.12% | 13.4% | 2.73% | 12.9% | – | – | – | – | – | – | – | – | –
Clc1cccc(COc2cncc(N3CCNCC3)n2)c1 | -5.02% | 5.27% | 1.26% | 5.13% | 1.71% | -8.45% | -8.79% | – | – | – | – | – | – | – | – | –
COc1cc2c(CCNC(C)=O)c[nH]c2cc1Cl | 4.32% | -5.23% | 0.0156% | -9.99% | 0.936% | – | 5.14% | -6.18% | – | – | – | – | – | – | – | –
CCOC(=O)c1c(/C(C#N)=C\N)c2ccc(Cl)c(Cl)c2n1C | – | – | – | – | – | – | – | – | 41.6% | -2.85% | -5.96% | -2.9% | 12.4% | 0.379% | – | -3.98%
CCC(=O)Nc1cccc(Oc2nc(Nc3ccc(N4CCN(C)CC4)cc3OC)ncc2Cl)c1 | 56.8% | -2.48% | -8.65% | -1.18% | 21.8% | -2.02% | -9.91% | – | – | – | – | – | – | – | – | –
C[C@@](Cc1c[nH]c2ccccc12)(NC(=O)Nc1ccc([N+](=O)[O-])cc1)C(=O)NCC1(c2ccccn2)CCCCC1 | 0.518% | 3.6% | 5.26% | 7.51% | 0.936% | – | – | -2.05% | – | – | – | – | – | – | – | –
CN(c1ccnc(CNc2nc(Nc3ccc4c(c3)CC(=O)N4)ncc2C(F)(F)F)n1)S(C)(=O)=O | – | – | – | – | – | – | – | – | 72% | 1.9% | -6.14% | 1.52% | 15.5% | 0.644% | 26.2% | –
CN1CCN(c2ccc(OC(F)(F)F)c(Nc3ncc4c(n3)-c3c(c(C(N)=O)nn3CCO)CC4)c2)CC1 | – | – | – | – | – | – | – | – | 38.7% | 27.3% | -8.92% | 1.33% | 13.3% | 3.38% | – | -4.24%
COc1ccc(S(=O)(=O)c2cc(OC)ccc2S(=O)(=O)c2ccc([C@H](C)NS(C)(=O)=O)cc2)cc1 | -5.72% | 12.1% | 4.76% | 2.76% | 4.18% | – | – | -5.59% | – | – | – | – | – | – | – | –
Cc1c(CC(=O)O)c2cccnc2n1Cc1ccc(S(C)(=O)=O)cc1C(F)(F)F | -3.98% | 7.57% | 7.75% | 0.834% | -4.39% | – | – | -4.75% | – | – | – | – | – | – | – | –
COc1ccc(C(=O)N2CCN(C(=O)/C=C/c3ccc(Br)cc3)CC2)cc1 | -0.119% | 16.7% | -6.97% | 2.61% | -0.421% | – | – | -3.17% | – | – | – | – | – | – | – | –
Cc1nc[nH]c1CCN | 8.2% | -5.1% | -3.73% | -5.39% | -7.49% | – | – | -7.09% | – | – | – | – | – | – | – | –
CN1CC(=O)N=C1NC(=O)Nc1cccc(Cl)c1 | -6.27% | 3.99% | 3.76% | -2.58% | -1.34% | – | – | -2.01% | – | – | – | – | – | – | – | –
Cc1cc(NC(=O)Nc2ccc(N(C)C)cc2)c2cc(F)cc(F)c2n1 | 9.41% | 6.04% | – | – | -2.31% | -7.93% | 6.31% | – | – | – | – | – | – | – | – | –
